Among the data in ChEMBL document CHEMBL6127131, “Design, Synthesis, and Biological Evaluation of New Selective PDE4 Inhibitors for Topical Treatment of Psoriasis” (J Med Chem, 2024) are inhibition, IC50 and CC50 values, retold here.

Series [1] has as its target T1, 3',5'-cyclic-AMP phosphodiesterase 4D (Homo sapiens, UniProt Q08499). Kind of series: Inhibition of recombinant full-length PDE4D2 (unknown origin) at 1 uM using FAM-cAMP as substrate preincubated for 15 mins followed by substrate addition and measured after 30 mins by plate reader assay relative to control. The conditions noted are these: time 45.0 min.
The subject of series [2] is RAW264.7. Kind of series: Anti-inflammatory activity against LPS induced mouse RAW264.7 cells assessed as reduction in TNFalpha secretion at 10 uM incubated for 24 hrs by ELISA. In kind it is functional. In general terms: ELISA stands for enzyme-linked immunosorbent assay.
Series [3] addresses T1, 3',5'-cyclic-AMP phosphodiesterase 4D. Kind of series: Inhibition of recombinant full-length PDE4D2 (unknown origin) using FAM-cAMP as substrate preincubated for 15 mins followed by substrate addition and measured after 30 mins by plate reader assay.
For series [4], the system named is RAW264.7. Kind of series: Anti-inflammatory activity against LPS induced mouse RAW264.7 cells assessed as reduction in TNFalpha secretion incubated for 24 hrs by ELISA. It is filed as functional, cell-based. The conditions noted are these: RAW264.7, 24 h.
Series [5] is described as follows: Cytotoxicity against human HaCaT cells incubated for 24 hrs by CCK8 assay. It is filed as toxicity, cell-based.
Series [6] can be described thus: Cytotoxicity against mouse RAW264.7 cells incubated for 24 hrs by CCK8 assay. It is filed as toxicity, cell-based. (Tetrazolium assays rely on reduction of a dye to a coloured formazan, in cell work by metabolically active cells.)
Series [7] relates to RAW264.7. Kind of series: Anti-inflammatory activity against LPS induced mouse RAW264.7 cells assessed as reduction in IL-6 secretion incubated for 24 hrs by ELISA. The conditions noted are these: RAW264.7, 24 h. In kind it is functional, cell-based.
A further series concerns HaCaT. Kind of series: Anti-inflammatory activity against M5 induced human HaCaT cells assessed as reduction in TNFalpha secretion incubated for 24 hrs by ELISA. In kind it is functional, cell-based.

For orientation: inhibition means the change of the read-out against control, counted positive when it falls. One may read the IC50 as the concentration at which inhibition is half-maximal. By CC50 is commonly meant the concentration giving 50% cytotoxicity.

T1 sequence (Q08499 whole entry): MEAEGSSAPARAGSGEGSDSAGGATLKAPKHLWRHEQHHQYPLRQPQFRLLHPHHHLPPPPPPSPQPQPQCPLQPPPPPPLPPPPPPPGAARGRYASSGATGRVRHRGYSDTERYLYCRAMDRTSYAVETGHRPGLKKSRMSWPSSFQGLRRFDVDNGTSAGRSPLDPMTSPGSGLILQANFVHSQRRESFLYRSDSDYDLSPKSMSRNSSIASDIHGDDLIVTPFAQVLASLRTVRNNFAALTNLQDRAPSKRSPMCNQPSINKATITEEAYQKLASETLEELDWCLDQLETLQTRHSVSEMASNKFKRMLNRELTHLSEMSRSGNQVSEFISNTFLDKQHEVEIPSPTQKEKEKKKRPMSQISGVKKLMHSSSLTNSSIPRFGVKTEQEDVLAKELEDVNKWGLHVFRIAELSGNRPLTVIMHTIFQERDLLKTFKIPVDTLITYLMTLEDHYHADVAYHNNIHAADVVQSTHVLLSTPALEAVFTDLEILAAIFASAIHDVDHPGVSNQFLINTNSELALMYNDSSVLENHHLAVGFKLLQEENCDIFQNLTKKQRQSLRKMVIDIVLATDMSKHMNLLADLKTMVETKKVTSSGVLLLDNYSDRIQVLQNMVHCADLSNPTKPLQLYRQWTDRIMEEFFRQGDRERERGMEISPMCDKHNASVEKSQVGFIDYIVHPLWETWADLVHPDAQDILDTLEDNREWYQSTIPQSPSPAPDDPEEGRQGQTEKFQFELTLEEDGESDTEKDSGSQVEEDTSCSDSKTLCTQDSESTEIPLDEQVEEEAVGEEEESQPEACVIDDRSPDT

In the case of `COc1ccc(CNC(=O)c2cnn3c(-c4ccc(OC(F)F)c(OCC5CC5)c4)ccnc23)cn1`, the inhibition in series [1] is < 73.1%. Take `O=C(Nc1ccccc1)c1csc(-c2ccc(OC(F)F)c(OCC3CC3)c2)n1`: the inhibition at 10 µM in the series with RAW264.7 [2] turned out to be 26.5%. In addition, the inhibition in series [1] was found to be 72.4%.

For the molecule `O=C(NCc1ncccn1)c1cc2nccc(-c3ccc(OC(F)F)c(OCC4CC4)c3)n2n1`, the inhibition at 10 µM with RAW264.7 [2] was 25.1%. In series [1], the inhibition is 70.7%. For the molecule `O=C(Nc1nccs1)c1cnn2c(-c3ccc(OC(F)F)c(OCC4CC4)c3)ccnc12`, the inhibition in series [1] was < 73.1%.

As for `O=C(NCc1cccnc1)c1cnn2c(-c3ccc(OC(F)F)c(OCC4CC4)c3)ccnc12`, in series [1], the inhibition was < 73.1%. As for `O=C(NCC1CCOCC1)c1cnn2c(-c3ccc(OC(F)F)c(OCC4CC4)c3)ccnc12`, the inhibition in series [1] was < 73.1%. On the same count and under the same terms, the same measure for `O=C(NC1CC1)c1cnn2c(-c3ccc(OC(F)F)c(OCC4CC4)c3)ccnc12`: < 73.1%.

For `O=C(NCc1cccc(F)c1F)c1cc2nccc(-c3ccc(OC(F)F)c(OCC4CC4)c3)n2n1`, the inhibition at 10 µM in the series with RAW264.7 [2] was determined as 13.7%. Further, the inhibition in series [1] was found to be 64.6%. In the case of `O=C(NCc1c(F)cc(F)cc1F)c1csc(-c2ccc(OC(F)F)c(OCC3CC3)c2)n1`, in the series with RAW264.7 [2], the inhibition at 10 µM amounted to 34%. Further, the half-maximal inhibitory concentration (IC50) in series [3] was 25.7 nM.

`O=C(NCC1CCOCC1)c1cc2nccc(-c3ccc(OC(F)F)c(OCC4CC4)c3)n2n1`: the inhibition at 10 µM with RAW264.7 [2] was 38.6%. For the same molecule, the inhibition in series [1] turned out to be 62.7%. As to `O=C(NCc1ccccc1)c1cnn2c(-c3ccc(OC(F)F)c(OCC4CC4)c3)ccnc12`, in series [1], the inhibition was < 73.1%. For `O=C(Nc1ccc2ncsc2c1)c1cnn2c(-c3ccc(OC(F)F)c(OCC4CC4)c3)ccnc12`, the inhibition in series [1] was < 73.1%. `O=C(NCc1ccc2ccccc2c1)c1csc(-c2ccc(OC(F)F)c(OCC3CC3)c2)n1`: the inhibition at 10 µM with RAW264.7 [2] was 14%. Also, the inhibition in series [1] was 78%.

For `O=C(Nc1ccccc1)c1cnn2c(-c3ccc(OC(F)F)c(OCC4CC4)c3)ccnc12`, the inhibition in series [1] is < 73.1%. On the same count and under the same terms, the same measure for `O=C(NCc1cccc(F)c1F)c1cnn2c(-c3ccc(OC(F)F)c(OCC4CC4)c3)ccnc12`: < 73.1%. With `O=C(NCc1cc(F)ccc1F)c1cnn2c(-c3ccc(OC(F)F)c(OCC4CC4)c3)ccnc12`, the inhibition in series [1] was < 73.1%. Take `O=C(NCc1ccc(F)cc1F)c1cc2nccc(-c3ccc(OC(F)F)c(OCC4CC4)c3)n2n1`: in the series on RAW264.7 [2], the inhibition at 10 µM was determined as 13.6%. The IC50 in series [3] was 558 nM. As for `O=C(Nc1ccncc1)c1cnn2c(-c3ccc(OC(F)F)c(OCC4CC4)c3)ccnc12`, the inhibition in series [1] is < 73.1%. In the case of `O=C(NCc1cccnc1)c1cc2nccc(-c3ccc(OC(F)F)c(OCC4CC4)c3)n2n1`, the inhibition at 10 µM in the series with RAW264.7 [2] stood at 6.6%. For the same molecule, the inhibition in series [1] turned out to be 49.3%. As for `O=C(Nc1ccncc1)c1csc(-c2ccc(OC(F)F)c(OCC3CC3)c2)n1`, the inhibition at 10 µM in the series with RAW264.7 [2] worked out at 25.6%. For the same molecule, the IC50 in series [3] amounted to 77.2 nM. As for `O=C(NCc1ccc(F)cc1F)c1csc(-c2ccc(OC(F)F)c(OCC3CC3)c2)n1`, the inhibition at 10 µM in the series with RAW264.7 [2] stood at 17.6%. Further, the inhibition in series [1] amounted to 79.1%. On to `O=C(NCc1c(F)cc(F)cc1F)c1cnn2c(-c3ccc(OC(F)F)c(OCC4CC4)c3)ccnc12`, for which the inhibition in series [1] was < 73.1%. Take `O=C(NCc1c(F)cccc1F)c1csc(-c2ccc(OC(F)F)c(OCC3CC3)c2)n1`: the IC50 in the series with RAW264.7 [4] stood at 48400 nM; in series [3], 9.36 nM; in the series with RAW264.7 [7], 57000 nM; in the series with HaCaT, 22600 nM. For the same molecule, the CC50 at 24 h in series [5] and in series [6] was > 50000 nM each time. In the case of `Cn1cc(NC(=O)c2cnn3c(-c4ccc(OC(F)F)c(OCC5CC5)c4)ccnc23)cn1`, in series [1], the inhibition was < 73.1%. `O=C(Nc1nccs1)c1cc2nccc(-c3ccc(OC(F)F)c(OCC4CC4)c3)n2n1`: in the series with RAW264.7 [2], the inhibition at 10 µM amounted to 25.8%. The inhibition in series [1] amounted to 86.1%. For `CC(C)CNC(=O)c1cnn2c(-c3ccc(OC(F)F)c(OCC4CC4)c3)ccnc12`, in series [1], the inhibition was < 73.1%. As to `O=C(NCc1ccccc1)c1csc(-c2ccc(OC(F)F)c(OCC3CC3)c2)n1`, the inhibition at 10 µM in the series on RAW264.7 [2] came to 29%. For the same molecule, the IC50 in series [3] was 25.9 nM. Take `O=C(O)c1csc(-c2ccc(OC(F)F)c(OCC3CC3)c2)n1`: in the series on RAW264.7 [2], the inhibition at 10 µM amounted to 22.9%. For the same molecule, the inhibition in series [1] was 78.5%. For the molecule `O=C(NCc1ccc(F)cc1F)c1cnn2c(-c3ccc(OC(F)F)c(OCC4CC4)c3)ccnc12`, the inhibition in series [1] is < 73.1%. On the same count and under the same terms, the same measure for `CCC(CC)NC(=O)c1cnn2c(-c3ccc(OC(F)F)c(OCC4CC4)c3)ccnc12`: < 73.1%.

Turning to `O=C(Nc1ccccc1)c1cc2nccc(-c3ccc(OC(F)F)c(OCC4CC4)c3)n2n1`, the inhibition at 10 µM in the series on RAW264.7 [2] came out at 16.5%. Further, in series [1], the inhibition was 89.2%. As to `O=C(NCc1cc(F)ccc1F)c1cc2nccc(-c3ccc(OC(F)F)c(OCC4CC4)c3)n2n1`, the inhibition at 10 µM with RAW264.7 [2] was found to be 16.3%. Moreover, the inhibition in series [1] was determined as 42.6%.

As to `O=C(NCc1cccc(F)c1F)c1csc(-c2ccc(OC(F)F)c(OCC3CC3)c2)n1`, the inhibition at 10 µM with RAW264.7 [2] worked out at 24.8%. Moreover, the IC50 in series [3] turned out to be 25 nM.

Turning to `O=C(NCc1ccc2ccccc2c1)c1cc2nccc(-c3ccc(OC(F)F)c(OCC4CC4)c3)n2n1`, the inhibition at 10 µM in the series with RAW264.7 [2] amounted to 12.4%. Besides, the inhibition in series [1] was 38.3%. Regarding `O=C(Nc1ccc2cc[nH]c2c1)c1cnn2c(-c3ccc(OC(F)F)c(OCC4CC4)c3)ccnc12`, the inhibition in series [1] was < 73.1%.

On to `O=C(Nc1nccs1)c1csc(-c2ccc(OC(F)F)c(OCC3CC3)c2)n1`, for which the inhibition at 10 µM in the series on RAW264.7 [2] was found to be 14.6%. Moreover, the inhibition in series [1] was found to be 64.8%.

Consider `O=C(NCc1c(F)cc(F)cc1F)c1cc2nccc(-c3ccc(OC(F)F)c(OCC4CC4)c3)n2n1`, for which, in the series on RAW264.7 [2], the inhibition at 10 µM was 23.3%. The inhibition in series [1] was found to be 38.4%. With `CC(C)(C)CNC(=O)c1cnn2c(-c3ccc(OC(F)F)c(OCC4CC4)c3)ccnc12`, the inhibition in series [1] is < 73.1%.

For the molecule `Cn1cc(NC(=O)c2cc3nccc(-c4ccc(OC(F)F)c(OCC5CC5)c4)n3n2)cn1`, in the series with RAW264.7 [2], the inhibition at 10 µM was found to be 15.4%. The inhibition in series [1] stood at 46.7%. Turning to `O=C(Nc1nc2ccccc2s1)c1csc(-c2ccc(OC(F)F)c(OCC3CC3)c2)n1`, the inhibition at 10 µM with RAW264.7 [2] came to 21.7%. Moreover, the inhibition in series [1] came out at 75.3%.

Turning to `O=C(NCc1ccc2ccccc2c1)c1cnn2c(-c3ccc(OC(F)F)c(OCC4CC4)c3)ccnc12`, in series [1], the inhibition was < 73.1%. On the same count and under the same terms, the same measure for `O=C(NC1CCCCC1)c1cnn2c(-c3ccc(OC(F)F)c(OCC4CC4)c3)ccnc12`: < 73.1%. For `O=C(NCc1c(F)cccc1F)c1cnn2c(-c3ccc(OC(F)F)c(OCC4CC4)c3)ccnc12`, the inhibition in series [1] is < 73.1%. For the molecule `O=C(NCc1ccccc1)c1cc2nccc(-c3ccc(OC(F)F)c(OCC4CC4)c3)n2n1`, the inhibition at 10 µM in the series with RAW264.7 [2] amounted to 19.6%. The IC50 in series [3] was 546 nM.

Regarding `O=C(NCc1c(F)cccc1F)c1cc2nccc(-c3ccc(OC(F)F)c(OCC4CC4)c3)n2n1`, the inhibition at 10 µM in the series on RAW264.7 [2] stood at 27.9%. In addition, the inhibition in series [1] came to 41.9%.
